Measured values reported in patent US5441956A, “Hydroisoquinoline derivatives” (Smithkline Beecham Farmaceutici S.p.A., priority 1991, dated 1995).
Structures can show the parent of a compound that is named as a salt.

What was measured:
[1] = target: T1, δ opioid receptor (delta sites) (Cavia porcellus, UniProt A0A286XTF2); assay: Binding to delta sites (radioreceptor binding, 3H-DADLE with unlabelled DAGO); details: guinea pig brain homogenate, 3H-DADLE + 30 nM DAGO, 40 min at 25° C.
T1 construct: performed on fresh guinea pig brain homogenates; from tissue; host or cells: guinea pig whole brain without cerebellum, washed membrane homogenate
Procedure: (§1) Radio receptor binding to delta, mu and kappa sites is performed on fresh guinea pig brain homogenates prepared according to Kosterlitz (1981). Whole brain, without cerebellum is homogenized in 50 mM Tris-buffer and centrifuged at 49,000×g for 10 min.
(§2) The pellet is then resuspended in the s3me buffer, incubated at 37° C. for 45 min. and centrifuged again.
(§3) 1.9 ml of the final homogenate (1:100 in Tris-pH 7.4 0° C.) is used for the binding assay.
For binding experiments, ^3 H-DADLE, which binds to mu and delta sites, is used in the presence of 30 nM of unlabelled DAGO to prevent mu binding. A concentration of radioligand near KD is used in the binding assays evaluating compounds of the invention. Non-specific binding is determined by addition of Mr 2266, 2.5 μM. The tubes are incubated for 40 min at 25° C. and bound ligand is separated from free by filtration through Whatman GF-G filters. The level of bound radioactivity on the filters is measured by liquid scintillation after solubilization in filtercount. The equilibrium dissociation constant (KD) and the maximum binding capacity (Bmax) are determined from the analysis of saturation curves, while the inhibition constant (Ki) is determined from the analysis of competition experiments (Hill 1910; Scatchard 1949; Cheng and Prusoff 973; Gillan et al 1980).

[2] = target: T2, μ opioid receptor (mu sites) (Cavia porcellus, UniProt A0ACM8Q262); assay: Binding to mu sites (3H-DAGO); details: guinea pig brain homogenate, 40 min at 25° C.
T2 construct: 3H-DAGO (DAMGO) displacement
Procedure: as §1, §2, §3
Binding to mu sites (Magnan J., 1982)
^3 H-[D-Ala^2, MePhe^4, Gly-Ol^5 ]Enkephalin (^3 H-DAGO), an enkephalin analogue that binds selectively to mu receptor, is added to the biological substrate and incubated at 25° C. for 40 min, filtered through Whatman GF-C filters and washed with ice-cold Tris buffer. The filters are then dried, solubilized in Filtercount and the radioactivity monitored. Non-specific binding is determined in the presence of 10^-6 M naloxone.

[3] = target: T3, κ opioid receptor (kappa sites) (Cavia porcellus, UniProt P41144); assay: Binding to kappa sites (3H-BRL 52537A); details: guinea pig brain homogenate, 40 min at 25° C.
T3 construct: performed on fresh guinea pig brain homogenates; from tissue; host or cells: guinea pig whole brain without cerebellum, washed membrane homogenate
Procedure: as §1, §2, §3
Final homogenate with solutions of the cold ligand and of the labelled ligand is incubated for 40 min. at 25° C., filtered through Whatman GF-C glass filter discs and washed. The radioactivity bound to the filters is counted by liquid scintillation spectrophotometry.

[4] = tested on: mice (Male Charles River, Swiss Strain); assay: Antinociception, tail-flick test in mice; format: in vivo, mouse; details: i.t., 10 min pretreatment
Procedure: The methodology employed is based on that described by D'Amour and Smith, J. Pharmacol. Exp. Ther. 72, 74 (1941).
Male Charles River mice (Swiss Strain) 29-35 g body weight are used.
Animals are allowed food and water ad libitum and are randomized into groups of 10 prior to experimentation.
Test compounds are dissolved in either distilled water or distilled water plus 0.1M AMS and administered by the intrathecal route in a final volume of 5 μl/mouse, according to the method described by Hylden and Wilcox, Eur. J. Pharmacol. 67,313 (1980).
Four hours prior the beginning of experiments, mice are anaesthetized with pentobarbital (80 mg/Kg i.p.) and a caudal cutaneous incision (1 cm) is performed on the back using a disposable 30 gauge 1/2 inch needles mated to a 50 μl luer siringe (Hamilton). The drug are delivered intrathecally between L5 and L6 of spinous process.
Control animals receive […] of the appropriate vehicle alone. Following a pretreatment period of 10 min., the mice are again placed under the heat source and the reaction time redetermined.
Percentage quantal protection is determined as the number of mice in which the reaction time is doubled compared to pretreatment values, expressed as a percentage of the total number of mice in the group.

T3 sequence (P41144 whole entry): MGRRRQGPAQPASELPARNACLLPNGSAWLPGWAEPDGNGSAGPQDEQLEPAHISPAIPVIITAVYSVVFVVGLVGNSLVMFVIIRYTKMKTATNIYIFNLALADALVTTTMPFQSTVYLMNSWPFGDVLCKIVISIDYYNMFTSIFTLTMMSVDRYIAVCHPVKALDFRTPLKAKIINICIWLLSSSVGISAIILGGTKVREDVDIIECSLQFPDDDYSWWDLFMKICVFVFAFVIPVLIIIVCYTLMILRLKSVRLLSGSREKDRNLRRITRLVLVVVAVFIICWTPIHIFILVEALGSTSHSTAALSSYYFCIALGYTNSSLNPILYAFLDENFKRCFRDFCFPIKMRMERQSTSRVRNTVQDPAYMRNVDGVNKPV
T1 sequence (A0A286XTF2 1-366): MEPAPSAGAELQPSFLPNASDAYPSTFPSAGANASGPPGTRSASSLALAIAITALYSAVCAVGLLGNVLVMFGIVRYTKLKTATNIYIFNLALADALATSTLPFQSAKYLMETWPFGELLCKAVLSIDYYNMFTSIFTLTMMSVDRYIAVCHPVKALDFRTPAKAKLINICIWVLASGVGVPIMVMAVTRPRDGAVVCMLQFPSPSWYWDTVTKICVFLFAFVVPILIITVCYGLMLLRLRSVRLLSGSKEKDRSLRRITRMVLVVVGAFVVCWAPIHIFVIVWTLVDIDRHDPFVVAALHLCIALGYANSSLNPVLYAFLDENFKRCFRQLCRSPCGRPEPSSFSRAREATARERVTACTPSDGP
T2 sequence (A0ACM8Q262 1-400): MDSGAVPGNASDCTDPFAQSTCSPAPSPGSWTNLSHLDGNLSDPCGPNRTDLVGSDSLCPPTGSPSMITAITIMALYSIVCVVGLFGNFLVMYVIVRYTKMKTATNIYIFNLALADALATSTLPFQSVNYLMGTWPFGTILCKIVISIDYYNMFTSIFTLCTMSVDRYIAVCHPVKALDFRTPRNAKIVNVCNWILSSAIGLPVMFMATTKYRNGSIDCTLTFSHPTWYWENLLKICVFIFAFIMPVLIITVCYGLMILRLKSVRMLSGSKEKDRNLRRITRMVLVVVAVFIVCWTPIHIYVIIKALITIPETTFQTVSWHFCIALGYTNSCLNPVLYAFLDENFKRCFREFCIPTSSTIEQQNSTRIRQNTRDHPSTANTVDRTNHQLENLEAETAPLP

Compound: CN1CC[C@]2(c3cccc(O)c3)Cc3[nH]c4ccccc4c3C[C@H]2C1 (relative stereo) [Example 5, 2-Methyl-4aα-(3-hydroxyphenyl)-1,2,3,4,4a,5,11,11aβ-octahydroindolo[2,3-g]isoquinoline hydrochloride]
- Ki [1]: 16 nM
- Ki [2]: 309 nM
- Ki [3]: > 1000 nM

Compound: CN1CC[C@]2(c3cccc(O)c3)Cc3c(c4ccccc4n3C)C[C@H]2C1 (relative stereo) [Example 7, 2,6-Dimethyl-4aα-(3-hydroxyphenyl)-1,2,3,4,4a,5,11,11aβ-octahydroindolo[2,3-g]isoquinoline]
- Ki [1]: 33.6 nM
- Ki [2]: 306 nM
- Ki [3]: > 1000 nM

Compound: CCN1CC[C@]2(c3cccc(O)c3)Cc3[nH]c4ccccc4c3C[C@H]2C1 (relative stereo) [Example 1, 2-ethyl-4aα-(3-hydroxyphenyl)-1,2,3,4,4a,5,11,11aβ-octahydro indolo[2,3-g]isoquinoline hydrochloride]
- Ki [1]: 16.4 nM
- Ki [2]: 2070 nM
- Ki [3]: > 1000 nM
- Antinociception Mouse Tail-Flick ED50 [4]: 0.010 mg/mouse

Compound: Cc1ccc2[nH]c3c(c2c1)C[C@H]1CN(C)CC[C@]1(c1cccc(O)c1)C3 (relative stereo) [Example 12, 2,9-Dimethyl-4aα-(3-hydroxyphenyl)-1,2,3,4,4a,5,11,11aβ-octahydroindolo[2,3-g]isoquinoline]
- Ki [1]: 61.9 nM
- Ki [2]: 678 nM
- Ki [3]: > 1000 nM

Compound: CN1CC[C@]2(c3cccc(O)c3)Cc3oc4ccccc4c3C[C@H]2C1 (relative stereo) [Example 10, 2-Methyl-4aα-(3-hydroxyphenyl)-1,2,3,4,4a,5, 11, 11aβ-octahydrobenzofuro[2,3-g]isoquinoline]
- Ki [1]: 10.1 nM
- Ki [2]: 104 nM
- Ki [3]: > 1000 nM

Compound: CN1CC[C@]2(c3cccc(O)c3)Cc3[nH]c4c(Cl)cccc4c3C[C@H]2C1 (relative stereo) [Example 16, 2-Methyl-4aα-(3-hydroxyphenyl)-7-chloro-1,2,3,4,4a,5,11,11aβ-octahydroindolo[2,3-g]isoquinoline]
- Ki [1]: 16.4 nM
- Ki [2]: 568 nM
- Ki [3]: > 1000 nM

Compound: CCN1CC[C@]2(c3cccc(O)c3)Cc3[nH]c4ccccc4c3C[C@H]2C1 (single isomer, unassigned) [Example 39, (+)-2-Ethyl-4aα-(3-hydroxyphenyl)-1,2,3,4,4a,5,11,11aβ-octahydroindolo[2,3-g]isoquinoline hydrochloride]
- Ki [1]: 6.24 nM
- Ki [2]: 2260 nM
- Ki [3]: > 1000 nM
